These results are taken from ChEMBL document CHEMBL5331143, “Stereochemistry-Driven Interactions of α,γ-Peptide Ligands with the Neuropeptide Y Y4-Receptor” (J Med Chem, 2023).

Data set [1] can be described thus: Stability in human plasma assessed as time constant by measuring loss of intact peptide at 100 uM measured upto 24 hrs at 37 degC. In kind it is ADME, cell-free.
Data set [2] in a line: Stability in human plasma assessed as half life time by measuring loss of intact peptide at 100 uM measured upto 24 hrs at 37 degC. In kind it is ADME, cell-free.
In data set [3] the target is T1, Neuropeptide Y receptor type 2 (Homo sapiens, UniProt P49146).
T1 sequence (P49146 whole entry): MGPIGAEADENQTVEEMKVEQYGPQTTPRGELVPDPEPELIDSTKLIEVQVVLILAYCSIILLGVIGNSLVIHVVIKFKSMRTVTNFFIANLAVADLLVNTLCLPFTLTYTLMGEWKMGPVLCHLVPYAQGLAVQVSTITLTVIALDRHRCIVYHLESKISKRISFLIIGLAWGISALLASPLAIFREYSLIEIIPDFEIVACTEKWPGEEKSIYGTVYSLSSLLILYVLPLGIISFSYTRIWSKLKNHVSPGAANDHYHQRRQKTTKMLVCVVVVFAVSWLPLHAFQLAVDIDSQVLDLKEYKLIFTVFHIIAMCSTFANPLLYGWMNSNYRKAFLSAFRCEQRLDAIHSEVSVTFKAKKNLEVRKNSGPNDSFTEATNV
The data set can be described thus: Displacement of [3H]propionyl-pNPY from human Y2 receptor expressed in CHO cells measured after 90 mins by MicroBeta plate counter based competition binding assay. In kind it is cell-based. (In general: In a radioligand displacement assay an active substance lowers the binding of a labelled ligand.)

Data set [4] in a line: Stability in human plasma assessed as rate constant by measuring loss of intact peptide at 100 uM measured upto 24 hrs at 37 degC. Format: ADME, cell-free.
The target of data set [5] is T2, Neuropeptide Y receptor type 4 (Homo sapiens, UniProt P50391). Description: Agonist potency at human Y4 receptor expressed in HEK293T-NlucN-mGSi/Y4R-NlucC cells assessed as intrinsic activity by miniGsi protein recruitment assay relative to hPP. Format: cell-based. The following applies: filed as agonist.
Data set [6] concerns the target T3, Neuropeptide Y receptor type 5 (Homo sapiens, UniProt Q15761).
T3 sequence (Q15761 whole entry): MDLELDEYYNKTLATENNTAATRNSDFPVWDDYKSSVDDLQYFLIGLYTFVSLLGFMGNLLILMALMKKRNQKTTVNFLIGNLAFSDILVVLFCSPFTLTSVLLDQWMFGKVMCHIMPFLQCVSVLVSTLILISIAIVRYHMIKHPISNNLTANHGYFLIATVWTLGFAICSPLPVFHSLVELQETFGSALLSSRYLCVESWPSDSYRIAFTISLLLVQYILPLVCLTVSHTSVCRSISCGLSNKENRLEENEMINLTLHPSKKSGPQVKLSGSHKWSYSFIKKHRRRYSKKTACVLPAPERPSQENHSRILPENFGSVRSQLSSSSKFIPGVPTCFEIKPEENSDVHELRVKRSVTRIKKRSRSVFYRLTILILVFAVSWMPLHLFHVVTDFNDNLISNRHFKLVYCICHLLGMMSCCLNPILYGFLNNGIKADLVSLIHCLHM
Description: Displacement of [3H]propionyl-pNPY from human Y5 receptor expressed in HEC-1B cells measured after 90 mins by MicroBeta plate counter based competition binding assay. In kind it is cell-based, HEC-1B cell line.

The target of data set [7] is T2, Neuropeptide Y receptor type 4. The data set can be described thus: Agonist potency at human Y4 receptor expressed in HEK293T-NlucN-mGSi/Y4R-NlucC cells by miniGsi protein recruitment assay. In kind it is cell-based.
Data set [8] in a line: Stability in human plasma assessed as intact remained level in presence of ramipril ACE inhibitor measured over 4 hrs at 37 degC. In kind it is ADME, cell-free.
In data set [9] the target is T2, Neuropeptide Y receptor type 4. Description: Displacement of [3H]UR-KK200 from human Y4 receptor expressed in CHO-Gqi5-mtAQE cells measured after 90 mins by MicroBeta plate counter based competition binding assay. In kind it is cell-based.

Molecules are shown by their SMILES. Starred links: 1 amine or outer side, 2 acyl side, 3 side chain; linkers in the order of their positions; H or OH if unused. Non-standard residues stand in square brackets, D forms with d. Residues, ends and D or L forms follow the SMILES beside them. X1 = O=C([C@@H]1C[C@@H](c2ccccc2)[C@@H]1CN[*:1])[*:2]; X2 = O=C([C@H]1C[C@H](c2ccccc2)[C@H]1CN[*:1])[*:2]

T2 sequence (P50391 whole entry): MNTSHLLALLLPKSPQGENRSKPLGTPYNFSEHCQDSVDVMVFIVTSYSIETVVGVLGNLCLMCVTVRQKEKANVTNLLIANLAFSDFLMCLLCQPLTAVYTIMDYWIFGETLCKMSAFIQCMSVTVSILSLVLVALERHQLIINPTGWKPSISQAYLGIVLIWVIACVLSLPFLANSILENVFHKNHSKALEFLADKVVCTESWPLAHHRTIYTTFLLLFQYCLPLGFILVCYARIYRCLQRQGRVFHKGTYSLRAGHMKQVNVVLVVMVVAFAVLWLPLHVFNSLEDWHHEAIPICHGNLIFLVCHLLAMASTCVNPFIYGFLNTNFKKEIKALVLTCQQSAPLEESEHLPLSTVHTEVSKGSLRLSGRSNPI

On to `CC(=O)N[C@@H](CCCNC(=N)N)C(=O)N[C@@H](Cc1ccc(O)cc1)C(=O)N[C@@H](CCCNC(=N)N)C(=O)N[C@@H](CC(C)C)C(=O)N[C@@H](CCCNC(=N)N)C(=O)N[C@@H](Cc1ccc(O)cc1)C(N)=O`, for which the K in data set [1] is 0.5 h⁻¹. Besides, the results for the half-life at 100 µM in data set [2] and in data set [4] were 2 h and 1.4 h, respectively. Also, the Ki in [3] (read-out: Ki) is more than 5000 nM; in data set [3] (read-out: pKi (converted)), more than 5010 nM; in data set [6] (read-out: Ki) it was more than 5000 nM; in [6] (read-out: pKi (converted)) it was more than 5010 nM. Moreover, the Intrinsic activity in data set [5] was found to be 0.58. In [7] (read-out: EC50), the EC50 was 110 nM.

For `CC(C)C[C@H](NC(=O)[C@@H]1CCCNC(=N)NC(=O)NCCCCNC(=O)CCC(=O)N[C@@H](CCCNC(=N)N)C(=O)N[C@@H](Cc2ccc(O)cc2)C(=O)N1)C(=O)N[C@@H](CCCNC(=N)N)C(=O)N[C@@H](Cc1ccc(O)cc1)C(N)=O`, the Intrinsic activity in data set [5] was 68%. In addition, the EC50 in data set [7] (hek293t, read-out: EC50) worked out at 1.7 nM.

For `CC(C)C[C@H](NC(=O)[C@@H](N)CCCNC(=N)N)C(=O)N[C@@H](CCCNC(=N)N)C(=O)N[C@@H](Cc1ccc(O)cc1)C(N)=O`, the Intrinsic activity in data set [5] was found to be 54%.

Take `CC(C)C[C@H](NC(=O)[C@@H]1CCCNC(=N)NC(=O)NCCCCNC(=O)CCC(=O)N[C@@H](CCCNC(=N)N)C(=O)N[C@@H](Cc2c[nH]c3ccccc23)C(=O)N1)C(=O)N[C@@H](CCCNC(=N)N)C(=O)N[C@@H](Cc1ccc(O)cc1)C(N)=O`: the Intrinsic activity in data set [5] stood at 80%.

`CC(=O)N[C@@H](CCCNC(=N)N)C(=O)NC[C@@H]1[C@H](C(=O)N[C@@H](CCCNC(=N)N)C(=O)N[C@@H](CC(C)C)C(=O)N[C@@H](CCCNC(=N)N)C(=O)N[C@@H](Cc2ccc(O)cc2)C(N)=O)C[C@H]1c1ccccc1` (Ac-R[X1]RLRY-NH2): the K in data set [1] was determined as 1.83 h⁻¹. The half-life at 100 µM in data set [2] is 0.55 h; in data set [4] it was 0.4 h. Also, the Ki in [3] (cho, read-out: Ki) is more than 1000 nM; in data set [3] (read-out: pKi (converted)) it was more than 1000 nM; in [6] (read-out: Ki), more than 3000 nM; in data set [6] (read-out: pKi (converted)) it was more than 3160 nM; in data set [9] (read-out: Ki) it was 0.66 nM; in data set [9] (read-out: pKi (converted)) it was 0.646 nM. For the same molecule, in data set [8], the Stability entry is on record as “Stable”. For the same molecule, the Intrinsic activity in data set [5] turned out to be 0.5. The values for the EC50 in [7] (read-out: EC50) and in data set [7] (read-out: pEC50 (converted)) were 20 nM and 18.6 nM, respectively.

In the case of `CC(=O)N[C@@H](CCCNC(=N)N)C(=O)NC[C@@H]1[C@H](C(=O)N[C@@H](CCCNC(=N)N)C(=O)NC[C@@H]2[C@H](C(=O)N[C@@H](CCCNC(=N)N)C(=O)N[C@@H](Cc3ccc(O)cc3)C(N)=O)C[C@H]2c2ccccc2)C[C@H]1c1ccccc1` (Ac-R[X1]R[X1]RY-NH2), the Ki in data set [3] (read-out: Ki) was more than 3000 nM; in data set [3] (read-out: pKi (converted)), more than 3160 nM; in [6] (hec-1b cell line, read-out: Ki) it was more than 1000 nM; in data set [6] (read-out: pKi (converted)) it was more than 1000 nM; in [9] (read-out: Ki), 340 nM; in data set [9] (read-out: pKi (converted)), 331 nM.

As for `CC(=O)N[C@@H](CCCNC(=N)N)C(=O)NC[C@H]1[C@@H](C(=O)N[C@@H](CCCNC(=N)N)C(=O)N[C@@H](CC(C)C)C(=O)N[C@@H](CCCNC(=N)N)C(=O)N[C@@H](Cc2ccc(O)cc2)C(N)=O)C[C@@H]1c1ccccc1` (Ac-R[X2]RLRY-NH2), the K in data set [1] was 0.31 h⁻¹. The half-life at 100 µM in data set [2] is 3.2 h; in data set [4], 2.2 h. In addition, the Ki in data set [3] (read-out: Ki) is more than 3000 nM; in data set [3] (read-out: pKi (converted)), more than 3160 nM; in data set [6] (read-out: Ki) it was more than 3000 nM; in data set [6] (read-out: pKi (converted)) it was more than 3160 nM; in data set [9] (read-out: Ki), 12 nM. In [8], the Stability entry was “Stable”. For the same molecule, in data set [5], the Intrinsic activity stood at 0.39. In addition, the EC50 in [7] (read-out: EC50) was 610 nM; in data set [7] (read-out: pEC50 (converted)) it was 468 nM.

As to `CC(=O)N[C@@H](CCCNC(=N)N)C(=O)NC[C@H]1[C@@H](C(=O)N[C@@H](CCCNC(=N)N)C(=O)NC[C@H]2[C@@H](C(=O)N[C@@H](CCCNC(=N)N)C(=O)N[C@@H](Cc3ccc(O)cc3)C(N)=O)C[C@@H]2c2ccccc2)C[C@@H]1c1ccccc1` (Ac-R[X2]R[X2]RY-NH2), the Ki is more than 3000 nM in [3] (read-out: Ki); more than 3160 nM in data set [3] (read-out: pKi (converted)); more than 1000 nM in [6] (hec-1b cell line, read-out: Ki); more than 1000 nM in [6] (read-out: pKi (converted)); 910 nM in data set [9] (read-out: Ki); 891 nM in data set [9] (read-out: pKi (converted)).

Usually half-life stands for the time in which the quantity being followed falls by half.
